Assays:
Gelatinase (MMP-2) = target: T1, Gelatinase (MMP-2) (Homo sapiens, UniProt P08253); experiment: Gelatinase (MMP-2) inhibitory activity, fluorogenic peptide substrate assay; format: biochemical; settings: substrate 5 μM, 60 min preincubation, 20-25° C.; read-out: MMP2 IC50
T1 sequence (P08253 110-660): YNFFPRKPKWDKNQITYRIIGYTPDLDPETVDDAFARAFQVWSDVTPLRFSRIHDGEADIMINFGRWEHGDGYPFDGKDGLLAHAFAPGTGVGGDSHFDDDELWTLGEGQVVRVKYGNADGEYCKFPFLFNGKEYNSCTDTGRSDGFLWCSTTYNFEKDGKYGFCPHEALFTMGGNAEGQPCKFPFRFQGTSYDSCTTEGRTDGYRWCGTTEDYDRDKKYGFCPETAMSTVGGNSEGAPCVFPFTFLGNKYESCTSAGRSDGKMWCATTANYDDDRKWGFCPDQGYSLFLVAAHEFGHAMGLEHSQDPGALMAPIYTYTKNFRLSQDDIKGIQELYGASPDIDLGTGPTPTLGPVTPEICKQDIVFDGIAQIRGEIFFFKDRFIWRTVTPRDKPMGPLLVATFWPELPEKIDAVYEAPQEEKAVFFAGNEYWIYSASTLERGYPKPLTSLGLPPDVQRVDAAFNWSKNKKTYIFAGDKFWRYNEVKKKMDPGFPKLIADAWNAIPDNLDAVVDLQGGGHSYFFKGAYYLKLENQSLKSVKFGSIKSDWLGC
Protocol: (§1) Stock solutions of inhibitors (0.03 mM-3 mM) are also prepared in DMSO. The inhibitors are diluted into the assay solutions, and the controls use an equal volume of DMSO so that the final DMSO concentration from the inhibitor and substrate dilutions in all assays is 1.0%. Assays are performed in an assay buffer (100 mM sodium chloride, 10 μM ZnCl. Sub 2, 10 mM CaCl2, 100 mM Tris-Cl pH7.5, 0.05% Brij-35), containing 1.0% DMSO from the substrate and inhibitor additions. The substrate concentration used in the assays is 5 μM. The assays are carried out at 20-25° C. […] The reaction mixtures are added in duplicate into appropriate wells of a 384-well assay plate. The reaction mixtures are preincubated with the inhibitors for 60 minutes The reactions are started by the addition of MMP substrate, and the fluorescence intensity changes are measured after 60 minutes The apparent enzyme activity in the presence of an inhibitor is then compared with that in the absence of any inhibitor to determine the inhibition effect of the inhibitor.

Collagenase-3 (MMP-13) = Collagenase-3 (MMP-13) (Homo sapiens, UniProt P45452); experiment: Collagenase-3 (MMP-13) inhibitory activity, fluorogenic peptide substrate assay; format: biochemical; settings: recombinant pro-collagenase-3 activated with 1 mM APMA; read-out: MMP13 IC50
Protocol: as §1
Collagenase-3 (MMP-13) inhibitory activity is determined as described above. Recombinant pro-collagenase-3 is activated with 1 mM APMA, and stored in the assay buffer after extensive dialysis in the assay buffer.

| Compound | IC50 (Gelatinase (MMP-2)) [nM] | IC50 (Collagenase-3 (MMP-13)) [nM] |
| --- | --- | --- |
| CC(C)C[C@@H](NS(=O)(=O)c1ccc2ccccc2c1)C(=O)NO [Example 5, 4-Methyl-2-(naphthalene-2-sulfonylamino)-pentanoic acid hydroxyamide] | 57.5 | 40.5 |
| CC(=O)Nc1ccc2ccc(S(=O)(=O)N(CCC(C)C)[C@@H](C(=O)NO)C(C)C)cc2c1 [Example 61, 2-[(7-Acetylamino-naphthalene-2-sulfonyl)-(3-methyl-butyl)-amino]-N-hydroxy-3-methyl-butyramide] | 22.8 | 0.5 |
| O=C(NO)[C@H]1CCCCCN1S(=O)(=O)c1ccc2ccccc2c1 [Example 33, (R)-1-(Naphthalene-2-sulfonyl)-azepane-2-carboxylic acid hydroxyamide] | 74.5 | 8.7 |
| COc1cccc(OCCN([C@@H](C(=O)NO)C(C)C)S(=O)(=O)c2ccc3ccccc3c2)c1 [Example 46, (R)—N-Hydroxy-2-[[2-(3-methoxy-phenoxy)-ethyl]-(naphthalene-2-sulfonyl)-amino]-3-methyl-butyramide] | 655 | 13.9 |
| CC(C)CCOc1ccc2ccc(S(=O)(=O)N(CCC(C)C)[C@@H](C(=O)NO)C(C)C)cc2c1 [Example 86, (R)—N-Hydroxy-3-methyl-2-[[7-(3-methyl-butoxy)-naphthalene-2-sulfonyl]-(3-methyl-butyl)-amino]-butyramide] | > 10000 | 3250 |
| CC(C)[C@H](C(=O)NO)N(CCOc1cccc(Cl)c1)S(=O)(=O)c1ccc2ccccc2c1 [Example 62, N-(2-(3-chlorophenoxy)ethyl)-N-(naphthalene-2-sulfonyl)-D-valine hydroxamic acid] | 3890 | 138 |
| CC(C)CCN([C@@H](C(=O)NO)C(C)C)S(=O)(=O)c1ccc2cc(N)ccc2c1 [Example 51, 2-[(6-Amino-naphthalene-2-sulfonyl)-(3-methyl-butyl)-amino]-N-hydroxy-3-methyl-butyramide] | 1130 | 90 |
| CC(C)[C@H](C(=O)NO)N(CCOc1ccc(Cl)cc1)S(=O)(=O)c1ccc2ccccc2c1 [Example 58, (R)-2-[[2-(4-Chloro-phenoxy)-ethyl]-(naphthalene-2-sulfonyl)-amino]-N-hydroxy-3-methyl-butyramide] | 2650 | 116 |
| CCOc1ccc2ccc(S(=O)(=O)N(Cc3ccccc3)[C@@H](C(=O)NO)C(C)C)cc2c1 [Example 27, 2-[Benzyl-(7-ethoxy-naphthalene-2-sulfonyl)-amino]-N-hydroxy-3-methyl-butyramide] | 4400 | 535 |
| C#CC[C@H](C(=O)NO)N(CC=C)S(=O)(=O)c1ccc2ccccc2c1 [Example 8, (R)-2-[Allyl-(naphthalene-2-sulfonyl)-amino]-pent-4-ynoic acid hydroxyamide] | 125 | 3.5 |
| CC(C)CCN([C@H](Cc1ccc(OCc2ccccc2)cc1)C(=O)NO)S(=O)(=O)c1ccc2ccccc2c1 [Example 25, (R)-3-(4-Benzyloxy-phenyl)-N-hydroxy-2-[(3-methyl-butyl)-(naphthalene-2-sulfonyl)-amino]-propionamide] | 1960 | 44.1 |
| C=CC[C@@H](NS(=O)(=O)c1ccc2ccccc2c1)C(=O)NO [Example 3, (R)-2-(Naphthalene-2-sulfonylamino)-pent-4-enoic acid hydroxyamide] | 22.2 | 35.6 |
| C=CCCN([C@H](CC=C)C(=O)NO)S(=O)(=O)c1ccc2ccccc2c1 [Example 4, (R)-2-[But-3-enyl-(naphthalene-2-sulfonyl)-amino]-pent-4-enoic acid hydroxyamide] | 50.7 | 0.7 |
| (R)-1-(2,3,4a,8a-Tetrahydro-benzo[1,4]dioxine-6-sulfonyl)-1,2,3,6-tetrahydro-pyridine-2-carboxylic acid hydroxyamide [Example 95] | – | 2.6 |
| CC(C)(NS(=O)(=O)c1ccc2ccccc2c1)C(=O)NO [Example 12, N-Hydroxy-2-methyl-2-(naphthalene-2-sulfonylamino)-propionamide] | 793 | 761 |
| O=C(NO)[C@H]1CCCCN1S(=O)(=O)c1ccc2ccccc2c1 [Example 9, (R)-1-(Naphthalene-2-sulfonyl)-piperidine-2-carboxylic acid hydroxyamide] | 48.8 | 4.9 |
| Cc1ccc(Nc2ccc3cc(S(=O)(=O)N(Cc4ccccc4)[C@@H](C(=O)NO)C(C)C)ccc3c2)cc1 [Example 43, 2-[Benzyl-(6-p-tolylamino-naphthalene-2-sulfonyl)-amino]-N-hydroxy-3-methyl-butyramide] | > 300 | 118 |

More lines, now with the values ahead:

| IC50 (Gelatinase (MMP-2)) [nM] | IC50 (Collagenase-3 (MMP-13)) [nM] | Compound |
| --- | --- | --- |
| – | 10200 | COc1ccc(S(=O)(=O)N2CC=CC[C@@H]2C(=O)NO)cc1OC [Example 97, (R)-1-(3,4-Dimethoxy-benzenesulfonyl)-1,2,3,6-tetrahydro-pyridine-2-carboxylic acid hydroxyamide] |
| 19.9 | 2.1 | COc1c(S(=O)(=O)N2CC=CC[C@@H]2C(=O)NO)ccc2ccccc12 [Example 78, (R)-1-(1-Methoxy-naphthalene-2-sulfonyl)-1,2,3,6-tetrahydro-pyridine-2-carboxylic acid hydroxyamide] |
| 3350 | 134 | Cc1ccc2ccc(S(=O)(=O)N(CCC(C)C)[C@@H](C(=O)NO)C(C)C)cc2c1 [Example 85, N-isoamyl-N-(6-methylnaphthalene-2-sulfonyl)-D-valine hydroxamic acid] |
| 940 | 212 | CC(C)CCN(C1(C(=O)NO)CCCC1)S(=O)(=O)c1ccc2ccccc2c1 [Example 70, 1-[(3-Methyl-butyl)-(naphthalene-2-sulfonyl)-amino]-cyclopentanecarboxylic acid hydroxyamide] |
| – | 37 | CN1CCOc2cc(S(=O)(=O)N3CC=CC[C@@H]3C(=O)NO)ccc21 [Example 94, (R)-1-(4-Methyl-3,4-dihydro-2H-benzo[1,4]oxazine-7-sulfonyl)-1,2,3,6-tetrahydro-pyridine-2-carboxylic acid hydroxyamide] |
| < 0.3 | < 0.3 | CC(C)CCN([C@@H](C(=O)NO)C1CCN(C(=O)OC(C)(C)C)CC1)S(=O)(=O)c1ccc2ccccc2c1 [Example 82, 4-{Hydroxycarbamoyl-[(3-methyl-butyl)-(naphthalene-2-sulfonyl)-amino]-methyl}-piperidine-1-carboxylic acid tert-butyl ester] |
| 713 | 63 | CC(C)CCN([C@@H](C(=O)NO)C(C)C)S(=O)(=O)c1nc2ccccc2s1 [Example 98, (R)-2-[(Benzothiazole-2-sulfonyl)-(3-methyl-butyl)-amino]-N-hydroxy-3-methyl-butyramide] |
| 50.7 | < 0.3 | CC1(C)SCCN(S(=O)(=O)c2ccc3ccccc3c2)[C@H]1C(=O)NO [Example 90] |
| 54.7 | 10.5 | O=C(NO)[C@H]1CC=CCN1S(=O)(=O)c1ccc2ncccc2c1 [Example 63, (R)-1-(Quinoline-6-sulfonyl)-1,2,3,6-tetrahydro-pyridine-2-carboxylic acid hydroxyamide] |
| 402 | 35 | CC(C)CCN(C1(C(=O)NO)CC1)S(=O)(=O)c1ccc2ccccc2c1 [Example 73, 1-[(3-Methyl-butyl)-(naphthalene-2-sulfonyl)-amino]-cyclopropanecarboxylic acid hydroxyamide] |
| 63.5 | 16.2 | O=C(NO)[C@H]1CC=CCCN1S(=O)(=O)c1ccc2ccccc2c1 [Example 88, (R)-1-(Naphthalene-2-sulfonyl)-2,3,6,7-tetrahydro-1H-azepine-2-carboxylic acid hydroxyamide] |
| 0.4 | 0.4 | CC(C)(C)OC(=O)N1CCC([C@@H](NS(=O)(=O)c2ccc3ccccc3c2)C(=O)NO)CC1 [Example 74, 4-[Hydroxycarbamoyl-(naphthalene-2-sulfonylamino)-methyl]-piperidine-1-carboxylic acid tert-butyl ester] |
| 770 | 135 | O=C(NO)[C@H]1[C@@H]2CCCC[C@@H](C2)N1S(=O)(=O)c1ccc2ccccc2c1 [Example 83, 7-(Naphthalene-2-sulfonyl)-7-aza-bicyclo[4.2.1]nonane-8-carboxylic acid hydroxyamide] |
| 22200 | 6950 | O=C(NO)[C@H]1C2CCC(CC2)N1S(=O)(=O)c1ccc2ccccc2c1 [Example 91, (R)-2-(Naphthalene-2-sulfonyl)-2-aza-bicyclo[2.2.2]octane-3-carboxylic acid hydroxyamide] |
| 128 | 7.3 | C=CCOc1ccc2cc(S(=O)(=O)N(CCC(C)C)[C@@H](C(=O)NO)C(C)C)ccc2c1 [Example 66, 2-[(6-Allyloxy-naphthalene-2-sulfonyl)-(3-methyl-butyl)-amino]-N-hydroxy-3-methyl-butyramide] |
| – | 326 | O=C(NO)[C@H]1CC=CCN1S(=O)(=O)c1ccc(N2CCOCC2)nc1 [Example 96, (R)-1-(6-Morpholin-4-yl-pyridine-3-sulfonyl)-1,2,3,6-tetrahydro-pyridine-2-carboxylic acid hydroxyamide] |
